Values quoted from earlier work, collected in US6969706B1, “Preserved pharmaceutical compositions comprising cyclodextrins” (Allergan, Inc., priority 2004, dated 2005).

Tested on: a number of pathogens
Conditions: HPβCD solutions; reported by Loftsson et al. 1992

| Compound | preservative activity in the presence of 2-hydroxypropyl-β-cyclodextrin |
| --- | --- |
| CCCOC(=O)c1ccc(O)cc1 [propylparaben] | significantly reduced preservative activity |
| benzalkonium chloride | did possess preservative activity |
| N=C(NCCCCCCNC(=N)NC(=N)Nc1ccc(Cl)cc1)NC(=N)Nc1ccc(Cl)cc1.O=C(O)[C@H](O)[C@@H](O)[C@H](O)[C@H](O)CO.O=C(O)[C@H](O)[C@@H](O)[C@H](O)[C@H](O)CO [chlorhexidine gluconate] | did possess preservative activity |
| COC(=O)c1ccc(O)cc1 [methylparaben] | significantly reduced preservative activity |
